Target: T1, 3-phosphoshikimate 1-carboxyvinyltransferase (Escherichia coli K-12, UniProt P0A6D3)
T1 sequence (P0A6D3 whole entry): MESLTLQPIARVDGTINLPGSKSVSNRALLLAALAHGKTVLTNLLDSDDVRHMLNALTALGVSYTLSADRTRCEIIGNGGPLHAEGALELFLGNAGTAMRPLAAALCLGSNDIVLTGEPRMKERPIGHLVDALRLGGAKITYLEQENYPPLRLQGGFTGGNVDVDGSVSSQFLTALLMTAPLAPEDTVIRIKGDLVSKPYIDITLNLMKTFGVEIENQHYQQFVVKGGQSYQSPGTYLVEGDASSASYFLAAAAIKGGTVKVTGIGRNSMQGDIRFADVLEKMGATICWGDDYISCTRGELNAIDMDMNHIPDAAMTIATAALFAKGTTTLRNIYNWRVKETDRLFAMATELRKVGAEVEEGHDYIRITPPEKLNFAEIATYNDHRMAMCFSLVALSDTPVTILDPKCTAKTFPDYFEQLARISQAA
Assay: The compound was tested for the inhibition of Escherichia coli 5-enolpyruvyl-shikimate-3-phosphate synthase (EPSP).

SMILES | Ki | IC50
O=C(O)C(=O)N[C@@H]1CC(C(=O)O)=C[C@@H](OC(C(=O)O)C(=O)O)[C@H]1O | 5.2 µM | 
O=C(O)C(=O)N[C@@H]1CC(C(=O)O)=C[C@@H](O)[C@H]1O |  | > 10000 µM
N[C@@H]1CC(C(=O)O)=C[C@@H](OP(=O)(O)O)[C@H]1O | 90 µM | 
O=C(O)CO[C@@H]1CC(C(=O)O)=C[C@@H](OP(=O)(O)O)[C@H]1O | 1.5 µM | 

From ChEMBL document CHEMBL1127173, “EPSP synthase inhibitor deisgn III. Synthesis & evaluation of a new 5-oxamic acid analog of EPSP which incorporates a malonate ether as a 3-phosphate mimic” (Bioorg Med Chem Lett, 1993)
